This is an account of results in patent US6936628B2, “Oral administration of epothilones” (Bristol-Myers Squibb Company, priority 2002, dated 2005).

Data set [1] can be described thus: in vitro. The following applies: human, Caco-2.
The conditions of data set [2]: cited from earlier work.
Data set [3] deals with Pat-7 human ovarian carcinoma. The note with it: mouse, in vivo, iv.
Data set [4] deals with Pat-26 human pancreatic carcinoma. The note with it: mouse, in vivo, iv.
The subject of data set [5] is human ovarian carcinoma xenograft A2780. The experiment in a line: Antitumor activity by parenteral administration to rats, A2780 xenograft. It is filed as in vivo, nude rats. As to the method:
The required number of animals needed to detect a meaningful response were pooled at the start of the experiment and each was given a subcutaneous implant of a tumor fragment (≈50 mg) with a 13-gauge trocar. For treatment of early-stage tumors, the animals were again pooled before distribution to the various treatment and control groups. For treatment of animals with advanced-stage disease, tumors were allowed to grow to the pre-determined size window (tumors outside the range were excluded) and animals were evenly distributed to various treatment and control groups. Treatment of each animal was based on individual body weight. Treated animals were checked daily for treatment related toxicity/mortality. Each group of animals was weighed before the initiation of treatment (Wt1) and then again following the last treatment dose (Wt2). The difference in body weight (Wt2−Wt1) provides a measure of treatment-related toxicity.
Tumor response was determined by measurement of tumors with a caliper twice a week, until the tumors reach a predetermined “target” size of 1 gm. Tumor weights (mg) were estimated from the formula: Tumor weight=(length×width^2)÷2
Antitumor activity was evaluated at the maximum tolerated dose (MTD) which is defined as the dose level immediately […] which excessive toxicity (i.e. more than one death) occurred. The MTD was frequently equivalent to OD. When death occurred, the day of death was recorded. Treated mice dying prior to having their tumors reach target size were considered to have died from drug toxicity. No control mice died bearing tumors less than target size. Treatment groups with more than one death caused by drug toxicity were considered to have had excessively toxic treatments and their data were not included in the evaluation of a compound's antitumor efficacy.
Tumor response end-point was expressed in terms of tumor growth delay (T−C value), defined as the difference in time (days) required for the treated tumors (T) to reach a predetermined target size compared to those of the control group (C).
To estimate tumor cell kill, the tumor volume doubling time was first calculated with the formula: TVDT=Median time (days) for control tumors to reach target size−Median time (days) for control tumors to reach half the target size and Log cell kill=T−C÷(3.32×TVDT)
Compound A was evaluated versus the human ovarian carcinoma xenograft A2780 grown in nude rats. […] In comparison, Compound B produced 3.3 LCK at its MTD (2.4 mg/kg/inj, IV, every 8 days×2).

The subject of data set [6] is tubulin isolated from calf brain. It counts as biochemical.
Data set [7] relates to A2780Tax human ovarian carcinoma. More on the design: species or system nude mice. The following applies: mouse, in vivo, iv.
For data set [8], the system named is HCT116/VM46 human colon carcinoma. The arrangement: species or system nude mice. The following applies: mouse, in vivo, iv.
Data set [9] relates to HCT116/VM46 cells. As to the kind of experiment: In vitro cytotoxicity assay (MTS), HCT116/VM46. It counts as cell-based, human. The following applies: concentration for 50% growth inhibition, HCT116/VM46 versus sensitive HCT116.
In data set [10] the test system is Pat-21 paclitaxel resistant breast cancer model. The arrangement: species or system nude mice. The following applies: mouse, in vivo, iv.

Several values for one entry are separate records, joined by “and”; a condition that tells them apart may be missing. Equal values may be shown once.

`CN/C(=N/CCSCc1nc[nH]c1C)NC#N` [cimetidine]: the Papp (as a rule, a coefficient for how fast a substance crosses the barrier) in data set [1] was 4.9 ×10⁻⁶ cm/s. The “extent of absorption in humans (% absorbed)” value (from here on “extent … (% absorbed)”) in data set [2] is recorded as 95%.

As for `C/C(=C\c1csc(C)n1)[C@@H]1C[C@@H]2O[C@]2(C)CCC[C@H](C)[C@H](O)[C@@H](C)C(=O)C(C)(C)[C@@H](O)CC(=O)N1` (relative stereo) [Compound B, [1S-[1R*,3R*(E),7R*,10S*,11R*,16S*]]-7,11-dihydroxy 8,8,10,12,16-pentamethyl-3-[1-methyl-2-(2-methyl-4-thiazolyl)ethenyl-17-oxa-4-azabicyclo[14.1.0]heptadecane-5,9-dione], the LCK in data set [3] is 1.9; in [5] (A2780 in nude rats, IV, every 8 days×2, at MTD), 3.3. In addition, the “LCK (gross log cell kill)” value in data set [4] is 1.2 and 1.2^3. Further, in [5] (nude rats bearing A2780, IV, every 8 days×2), the MTD was found to be 2.4 mg/kg/inj. The “Polymerization Potency, EC0.01” value in data set [6] was found to be 3500 nM. Moreover, the “Ratio of Polymerization Potency of Analog/Paclitaxel” value (from here on “Ratio … of Analog/Paclitaxel”) in data set [6] is reported as 0.4.

In the case of `C/C(=C\c1csc(C)n1)[C@@H]1C[C@@H]2O[C@@H]2CCC[C@H](C)[C@H](O)[C@@H](C)C(=O)C(C)(C)[C@@H](O)CC(=O)O1` [BMS-212188 (Epothilone A), Epothilone A], in [6], the “Polymerization Potency, EC0.01” value was determined as 2000 nM and the “Ratio … of Analog/Paclitaxel” value amounted to 0.4.

In the case of `CC(=O)O[C@H]1C(=O)[C@@]2(C)[C@H]([C@H](OC(=O)c3ccccc3)[C@]3(O)C[C@H](OC(=O)[C@H](O)[C@@H](NC(=O)c4ccccc4)c4ccccc4)C(C)=C1C3(C)C)[C@]1(OC(C)=O)CO[C@@H]1C[C@@H]2O` [Paclitaxel], the “LCK (gross log cell kill)” value in [7] is given as 0.8^3; in data set [8] it was 0.55^3; in data set [3], 0.8^3; in [4], 0.4; in data set [10] it was 0.3^3. In addition, the “R/S, or resistance ratio” value in [9] came to 155 fold.

The compound `OC[C@@H](O)[C@@H](O)[C@H](O)[C@H](O)CO` [mannitol] returned a Papp in data set [1] of 3.2 ×10⁻⁶ cm/s. Also, the “extent … (% absorbed)” value in [2] is on record as 15%.

“Epothilone B [BMS-205535 (Epothilone B)]”: in [6], the “Polymerization Potency, EC0.01” value came out at 1800 nM and the “Ratio … of Analog/Paclitaxel” value turned out to be 0.3.

As for `CCCC(=O)Nc1ccc(OCC(O)CNC(C)C)c(C(C)=O)c1` (stereo not drawn) [acebutalol], in data set [2], the “extent … (% absorbed)” value is reported as 40%.
